Test [1] deals with Wnt ligand-induced signaling. Briefly: Wnt-responsive Super-TOpFlash (STF) luciferase reporter gene assay in HEK293 cells. The class given is cell-based. The settings on record: 20% Wnt3A conditioned medium, read-out: HEK293STF IC50. How it is done: Cellular Reporter Gene Assay to Determine Compound Inhibition of Wnt Signaling Activity
Compound activity in inhibiting Wnt ligand-induced signaling was measured using a Wnt-responsive Super-TOpFlash (STF) luciferase reporter gene assay in HEK293 cells. On day 1 of the assay, cells were plated at a density of 8000 cells per well of 384-well plate in 25 μl medium containing 5% fetal bovine serum (FBS). On the second day, […] condition medium (CM) produced from mouse L cells was added to the cells to induce Wnt signaling, followed by addition of 5 μL of compounds each well in 10-point serial dilution. On the third day, the luciferase activity was measured by the Bright-Glo™ Luciferase Assay System following manufacture's protocol (Promega, E2620). The Inhibition was calculated as: (Maximum Wnt-induced signaling−Sample)/(Maximum Wnt-induced signaling−Background)*100. “Maximum Wnt-induced signaling” is the STF signal level induced by 20% Wnt3A CM without compound; and “Background” is the STF signal level without the addition of Wnt3A CM or compound.
A general note: A reporter such as luciferase makes a cellular process visible.

Test [2] deals with TNKS2 (GST-tagged tankyrase 2 PARP domain, TNKS2P) (Homo sapiens (Human), UniProt Q9H2K2). In words: TNKS2 autoparsylation enzymatic assay (LC/MS detection of nicotinamide). Type of test: biochemical. The settings on record: 20 nM enzyme, 250 μM β-NAD+, 60 min, read-out: TNKS2 AP IC50. The text has this: (§1) The human tankyrase 1 PARP catalytic domain, TNKS1P, was cloned into a pDONR221 vector using the Invitrogen Gateway Technology. This entry clone was then subcloned into the destination vector pDEST20 to obtain the N-terminal Glutathione S-transferase (GST)-tagged fusion protein. GST-TNKS1P was then expressed in Sf21 cells using the Invitrogen baculovirus expression system (Invitrogen-Bac-to-Bac® Baculovirus Expression System, Version D). The protein was purified by a GSTrap column (GE Healthcare). The N-terminal GST-tagged tankyrase 2 protein PARP domain, TNKS2P, was cloned, expressed, and purified in a similar manner.
TNKS2 (GST-tagged tankyrase 2 PARP domain, TNKS2P), sequence (Q9H2K2 959-1164): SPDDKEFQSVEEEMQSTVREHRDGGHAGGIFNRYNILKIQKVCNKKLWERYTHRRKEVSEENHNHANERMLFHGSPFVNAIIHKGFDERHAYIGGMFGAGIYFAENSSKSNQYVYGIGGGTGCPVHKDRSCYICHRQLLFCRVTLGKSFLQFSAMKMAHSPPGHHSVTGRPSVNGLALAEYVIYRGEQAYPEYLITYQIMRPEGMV
The % Inhibition was calculated as: (Control−Sample)/(Control−Background)*100.

Test [3] addresses human tankyrase 1 PARP catalytic domain, TNKS1P (Homo sapiens (Human), UniProt O95271). In words: TNKS1 autoparsylation enzymatic assay (LC/MS detection of nicotinamide). The settings on record: 20 nM enzyme, 250 μM β-NAD+, 60 min, read-out: TNKS1 AP IC50. The class given is biochemical.
Text: as §1, with “manner. Human PARP1 (Cat. No. 4668-100-01) and activated DNA (Cat. No. 4671-096-06) were purchased from Trevigen, Inc. PARP2 (Cat. No. ALX-201-064-C020) was purchased from Alexis Biochemical.” for “manner.”
The % Inhibition was calculated as: (Control−Sample)/(Control−Background)*100. “Control” is the average value of 8 wells without compound; and “Background” is the average of 8 wells mixed with 5× quenching solution measured prior to initiation of the reaction.

Read-outs that look alike come from different tables or passages of the source. Where only a bound is given, the exact number is not on record here.

human tankyrase 1 PARP catalytic domain, TNKS1P, sequence (O95271 1112-1317): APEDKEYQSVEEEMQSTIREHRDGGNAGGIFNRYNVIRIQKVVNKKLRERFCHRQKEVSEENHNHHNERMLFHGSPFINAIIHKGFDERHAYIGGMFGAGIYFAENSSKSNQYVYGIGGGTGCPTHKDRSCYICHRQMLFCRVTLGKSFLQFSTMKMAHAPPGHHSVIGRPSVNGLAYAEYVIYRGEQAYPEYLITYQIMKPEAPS

Turning to `O=C(CCc1ccccc1)N(Cc1nc2c(c(=O)[nH]1)COCC2)Cc1ccc(Cl)s1` [Example 21, N-((5-Chlorothiophen-2-yl)methyl)-N-((4-oxo-4,5,7,8-tetrahydro-3H-pyrano[4,3-d]pyrimidin-2-yl)methyl)-3-phenylpropanamide], the IC50 in test [1] (Homo sapiens) is 1.97 ± 0.56 µM; in test [2], 0.318 ± 0.009 µM; in test [3], 1.61 ± 0.11 µM.

As for `O=C(CCc1ccccc1)N(Cc1nc2c(c(=O)[nH]1)COCC2)Cc1ccccc1F` [Example 14, N-(2-Fluorobenzyl)-N-((4-oxo-4,5,7,8-tetrahydro-3H-pyrano[4,3-d]pyrimidin-2-yl)methyl)-3-phenylpropanamide], the concentration for half-maximal inhibition (IC50) in test [1] (Homo sapiens) was determined as 4.09 ± 0.1 µM; in test [2], 1.05 ± 0.05 µM; in test [3], 5.61 ± 0.24 µM.

Turning to `O=C(CCc1ccccc1F)N(Cc1ccc[nH]1)Cc1nc2c(c(=O)[nH]1)COCC2` [Example 26, N-((1H-Pyrrol-2-yl)methyl)-3-(2-fluorophenyl)-N-((4-oxo-4,5,7,8-tetrahydro-3H-pyrano[4,3-d]pyrimidin-2-yl)methyl)propanamide], the half-maximal inhibitory concentration (IC50) in test [1] (Homo sapiens) was found to be 5 ± 0.72 µM; in test [2], 0.235 ± 0.024 µM; in test [3], 1.17 ± 0.12 µM.

For the compound `O=c1[nH]c(CN(Cc2cccs2)S(=O)(=O)CCc2ccccc2)nc2c1COCC2` [Example 10, 2-Phenyl-ethanesulfonic acid (4-oxo-3,5,7,8-tetrahydro-4H-pyrano[4,3-d]pyrimidin-2-ylmethyl)-thiophen-2-ylmethyl-amide], the IC50 in test [1] (Homo sapiens) turned out to be 2.43 ± 0.94 µM.

Take `O=C(CCc1ccccc1)N(Cc1nc2c(c(=O)[nH]1)COCC2)Cc1nccs1` [Example 19, N-((4-Oxo-4,5,7,8-tetrahydro-3H-pyrano[4,3-d]pyrimidin-2-yl)methyl)-3-phenyl-N-(thiazol-2-ylmethyl)propanamide]: the IC50 in test [1] (Homo sapiens) amounted to 8.56 ± 0.42 µM; in test [2], 2.03 ± 0.04 µM; in test [3], 11.4 ± 0.4 µM.

With “N-((4-Oxo-4,5,7,8-tetrahydro-3H-pyrano[4,3-d]pyrimidin-2-yl)methyl)-3-(pyridin-4-yl)-N-(thiophen-2-ylmethyl)propanamide [Example 12]”, the figures for the 50% inhibitory concentration (IC50) in test [1] and in test [3] were 41 ± 1.6 µM and 14.6 ± 0.4 µM, respectively.

In the case of `O=C(CCc1ccccc1)N(Cc1nc2c(c(=O)[nH]1)COCC2)CC1CCCC1` [Example 13, N-Cyclopentylmethyl-N-(4-oxo-3,5,7,8-tetrahydro-4H-pyrano[4,3-d]pyrimidin-2-ylmethyl)-3-phenyl-propionamide], the IC50 in test [1] (Homo sapiens) is 4.09 ± 1.29 µM; in test [2] it was 0.995 ± 0.094 µM; in test [3], 4.78 ± 0.36 µM.

Turning to `C[C@H](c1ccccc1)N(Cc1nc2c(c(=O)[nH]1)COCC2)S(=O)(=O)Cc1ccccc1` [Example 25, (R)—N-((4-Oxo-4,5,7,8-tetrahydro-3H-pyrano[4,3-d]pyrimidin-2-yl)methyl)-1-phenyl-N-(1-phenylethyl)methanesulfonamide], the IC50 in test [1] (Homo sapiens) was found to be 23.2 ± 7.9 µM; in test [2], 1.85 ± 0.06 µM; in test [3], 9.08 ± 0.76 µM.

With `O=C(CCc1ccccc1)N(Cc1nc2c(c(=O)[nH]1)COCC2)Cc1cncs1` [Example 22, N-((4-Oxo-4,5,7,8-tetrahydro-3H-pyrano[4,3-d]pyrimidin-2-yl)methyl)-3-phenyl-N-(thiazol-5-ylmethyl)propanamide], the results for the IC50 in test [1] (Homo sapiens), in test [2] and in test [3] were 18.2 ± 4.5 µM, 3.48 ± 0.71 µM and 17.5 ± 1 µM, respectively.

Consider `O=C(CCc1ccc(O)cc1)N(Cc1nc2c(c(=O)[nH]1)COCC2)Cc1cccs1` [Example 8, 3-(4-Hydroxy-phenyl)-N-(4-oxo-3,5,7,8-tetrahydro-4H-pyrano[4,3-d]pyrimidin-2-ylmethyl)-N-thiophen-2-ylmethyl-propionamide], for which the half-inhibitory concentration (IC50) in test [3] turned out to be 1.42 ± 0.04 µM.

As for `O=C(CCc1cccc(F)c1)N(Cc1nc2c(c(=O)[nH]1)COCC2)Cc1cccs1` [Example 5, 3-(3-Fluorophenyl)-N-((4-oxo-4,5,7,8-tetrahydro-3H-pyrano[4,3-d]pyrimidin-2-yl)methyl)-N-(thiophen-2-ylmethyl)propanamide], the IC50 in test [3] turned out to be 1.58 ± 0.014 µM.

On to `O=C(CCc1ccccc1)N(Cc1nc2c(c(=O)[nH]1)COCC2)Cc1ncco1` [Example 20, N-(Oxazol-2-ylmethyl)-N-((4-oxo-4,5,7,8-tetrahydro-3H-pyrano[4,3-d]pyrimidin-2-yl)methyl)-3-phenylpropanamide], for which the figures for the half-inhibitory concentration (IC50) in test [1] (Homo sapiens), in test [2] and in test [3] were 14.3 ± 4 µM, 1.7 ± 0.03 µM and 4.6 ± 0.2 µM, respectively.

`CC(C)N(Cc1nc2c(c(=O)[nH]1)COCC2)C(=O)CCc1ccccc1` [Example 16, N-Isopropyl-N-((4-oxo-4,5,7,8-tetrahydro-3H-pyrano[4,3-d]pyrimidin-2-yl)methyl)-3-phenylpropanamide]: the values for the IC50 in test [1] (Homo sapiens), in test [2] and in test [3] were 34.9 µM, 5.39 ± 1.63 µM and more than 19 µM, respectively.

As to `O=c1[nH]c(CN(Cc2cccs2)S(=O)(=O)Cc2ccccc2)nc2c1COCC2` [Example 9, N-((4-Oxo-4,5,7,8-tetrahydro-3H-pyrano[4,3-d]pyrimidin-2-yl)methyl)-1-phenyl-N-(thiophen-2-ylmethyl)methanesulfonamide], the 50% inhibitory concentration (IC50) in test [1] (Homo sapiens) was found to be 0.9 ± 0.23 µM.

Consider `C[C@@H](c1ccccc1)N(Cc1nc2c(c(=O)[nH]1)COCC2)S(=O)(=O)Cc1ccccc1` [Example 24, (S)—N-((4-Oxo-4,5,7,8-tetrahydro-3H-pyrano[4,3-c]pyrimidin-2-yl)methyl)-1-phenyl-N-(1-phenylethyl)methanesulfonamide], for which the IC50 in test [1] (Homo sapiens) was 15.7 ± 0.8 µM; in test [2], 3.12 ± 0.06 µM; in test [3], 18.1 ± 1.9 µM.

As to `O=C(CCc1ccccc1O)N(Cc1nc2c(c(=O)[nH]1)COCC2)Cc1cccs1` [Example 6, 3-(2-Hydroxy-phenyl)-N-(4-oxo 3,5,7,8-tetrahydro-4H-pyrano[4,3-d]pyrimidin-2-ylmethyl)-N-thiophen-2-ylmethyl-propionamide], the IC50 in test [3] stood at 5.19 ± 0.227 µM.

With `O=C(CCc1ccncc1)N(Cc1nc2c(c(=O)[nH]1)COCC2)Cc1cccs1` [Example 11, N-((4-Oxo-4,5,7,8-tetrahydro-3H-pyrano[4,3-d]pyrimidin-2-yl)methyl)-3-(pyridin-4-yl)-N-(thiophen-2-ylmethyl)propanamide], the IC50 in test [3] was determined as 4.17 ± 0.26 µM.

Turning to `O=C(CCc1ccccc1)N(CCO)Cc1nc2c(c(=O)[nH]1)COCC2` [Example 23, N-(2-Hydroxy-ethyl)-N-(4-oxo-3,5,7,8-tetrahydro-4H-pyrano[4,3-d]pyrimidin-2-ylmethyl)-3-phenyl-propionamide], the results for the IC50 in test [1] (Homo sapiens), in test [2] and in test [3] were more than 50 µM, 2.68 ± 0.077 µM and 16.93 ± 0.02 µM, respectively.

For the compound `CCN(Cc1nc2c(c(=O)[nH]1)COCC2)C(=O)CCc1ccccc1` [Example 15, N-Ethyl-N-((4-oxo-4,5,7,8-tetrahydro-3H-pyrano[4,3-d]pyrimidin-2-yl)methyl)-3-phenylpropanamide], in test [3], the IC50 was more than 19 µM.

Consider `CC(C)(C)C(=O)CN(Cc1nc2c(c(=O)[nH]1)COCC2)C(=O)CCc1ccccc1` [Example 17, N-(3,3-Dimethyl-2-oxobutyl)-N-((4-oxo-4,5,7,8-tetrahydro-3H-pyrano[4,3-d]pyrimidin-2-yl)methyl)-3-phenylpropanamide], for which the 50% inhibitory concentration (IC50) in test [1] (Homo sapiens) stood at 14.3 ± 1 µM; in test [2], 2.99 ± 0.036 µM; in test [3], 17.1 ± 2 µM.

With `O=C(CCc1c[nH]c2ccccc12)N(Cc1nc2c(c(=O)[nH]1)COCC2)Cc1cccs1` [Example 3, 3-(1H-Indol-3-yl)-N-(4-oxo-3,5,7,8-tetrahydro-4H-pyrano[4,3-d]pyrimidin-2-ylmethyl)-N-thiophen-2-ylmethyl-propionamide], in test [1] (Homo sapiens), the IC50 was 9.31 ± 3.9 µM.

What is called IC50 is the concentration needed to halve the response being measured.

These data come from US9227982B2 (NOVARTIS AG, priority 2011, dated 2016).
